According to patent US8153817B2, “Synthesis of methyl nonactate derivatives” (Ohio University, priority 2006, dated 2012):
≈ marks a conversion by molar mass, not a printed value. Like-named read-outs stand apart in the source and are kept apart here.

System: B. subtilis
Experiment: MIC screen against B. subtilis
Type: cell-based
Conditions: Bacillus subtilis
Method: In comparison ampicillin, which is an antibiotic in wide therapeutic use, has an MIC of 100 μM in this screen.

[1] = Table 1, selected triazoloamides, B. subtilis, read-out: MIC

MIC [1] [µM] | MIC (B. subtilis (gram positive), read-out: MIC against B. subtilis) [µM] | SMILES
250 (≈ 108 µg/mL) |  | C[C@H](C(=O)NCCc1ccccc1)[C@@H]1CC[C@H](C[C@@H](C)n2cc(-c3ccccc3)nn2)O1
500 (≈ 251 µg/mL) |  | C[C@H](C(=O)Nc1ccccc1)[C@@H]1CC[C@H](C[C@@H](C)n2cc(CN3CCC(c4ccccc4)CC3)nn2)O1
1000 (≈ 531 µg/mL) |  | C[C@@H](C(=O)N(C)Cc1ccccc1)[C@H]1CC[C@@H](C[C@H](C)n2cc(CN3CCN(c4ccccc4)CC3)nn2)O1
1000 (≈ 546 µg/mL) |  | COc1ccc(CNC(=O)[C@@H](C)[C@@H]2CC[C@H](C[C@@H](C)n3cc(CN4CCC(c5ccccc5)CC4)nn3)O2)cc1
1000 (≈ 435 µg/mL) |  | COc1ccc(NC(=O)[C@@H](C)[C@@H]2CC[C@H](C[C@@H](C)n3cc(-c4ccccc4)nn3)O2)cc1
2000 (≈ 989 µg/mL) |  | C[C@H](C(=O)NC1CCCC1)[C@@H]1CC[C@H](C[C@@H](C)n2cc(CN3CCN(c4ccccc4)CC3)nn2)O1
2000 (≈ 993 µg/mL) |  | C[C@H](C(=O)N1CCOCC1)[C@@H]1CC[C@H](C[C@@H](C)n2cc(CN3CCN(c4ccccc4)CC3)nn2)O1
2000 (≈ 1020 µg/mL) |  | C[C@H](C(=O)NC1CCCCC1)[C@@H]1CC[C@H](C[C@@H](C)n2cc(CN3CCN(c4ccccc4)CC3)nn2)O1
4000 (≈ 1430 µg/mL) |  | C[C@H](C(=O)N(C)C)[C@@H]1CC[C@H](C[C@@H](C)n2cc(-c3ccccc3)nn2)O1
4000 (≈ 2290 µg/mL) |  | C[C@H](C(=O)N1CCN(c2ccccc2)CC1)[C@@H]1CC[C@H](C[C@@H](C)n2cc(CN3CCN(c4ccccc4)CC3)nn2)O1
 | 100 (≈ 34.9 µg/mL) | CC1(C)S[C@@H]2[C@H](NC(=O)[C@H](N)c3ccccc3)C(=O)N2[C@H]1C(=O)O [ampicillin, reference compound]
